Measured values: PMC5473904, “Epigenetic and antitumor effects of platinum(IV)-octanoato conjugates” (Scientific Reports, 2017)

What was measured:
PNT1a = experiment: MTT cytotoxicity, 72 h; type: cell-based; conditions: platinum complexes
[1] = tested on: CHO-K1 Chinese hamster ovary cells; experiment: MTT cytotoxicity, 72 h; type: cell-based; conditions: platinum complexes
Experimental: (§1) Cytotoxic activity of the compounds tested in the present work was screened on the panel of malignant and nonmalignant cell lines using the colorimetric MTT assay and 72 h of drug incubation period.
(§2) Cell death was evaluated using a system based on the tetrazolium compound MTT [3-(4,5-dimethyl-2-thiazolyl)-2,5-diphenyl-2H-tetrazolium bromide]. The cells were seeded in 96-well tissue culture plates at a density of 10^4 A2780cisR, LNCaP, HSF cells/well, 3 × 10^3 CHO-K1 or 4 × 10^3 MCF7, HCT-116 and MRC5 pd30 cells/well in 100 μL of medium. After overnight incubation (16 h), the cells were treated with the compounds in a final volume of 200 μL/well. After additional 72 h, 10 μL of a freshly diluted MTT solution (2.5 mg mL^−1) was added to each well, and the plate was incubated at 37 °C in a humidified 5% CO2 atmosphere for 4 h. At the end of the incubation period, the medium was removed, and the formazan product was dissolved in 100 μL of DMSO. The cell viability was evaluated by measurement of the absorbance at 570 nm, using an Absorbance Reader SUNRISE TECAN SCHOELLER. IC50 values were calculated from curves constructed by plotting cell survival (%) versus drug concentration (μM). All experiments were made in triplicate. The reading values were converted to the percentage of control (% cell survival). Cytotoxic effects were expressed as IC50.

[2] = tested on: HCT-116 human colorectal carcinoma cells; experiment: MTT cytotoxicity, 72 h; type: cell-based; conditions: for IC50: MTT, 72 h, platinum complexes and decitabine
Experimental: as §1, §2

[3] = tested on: MCF-7 human breast cancer cells; experiment: MTT cytotoxicity, 72 h; type: cell-based; conditions: platinum complexes
Experimental: as §1, §2

[4] = tested on: A2780cisR human ovarian carcinoma cells; experiment: MTT cytotoxicity, 72 h; type: cell-based; conditions: for RF, resistance factor: IC50 (resistant, A2780cisR)/IC50 (sensitive, A2780); for IC50: MTT, 72 h, platinum complexes
Experimental: as §1, §2

[5] = tested on: Lewis lung carcinoma (LLC); experiment: In vivo antitumor activity in Lewis lung carcinoma; conditions: LLC in C57BL mice; for Average tumor weight (mean ± SD): 20 mg kg^−1 daily orally day 7–14, day 15; for Inhibition of tumor growth: 20 mg kg^−1 daily orally day 7–14, day 15, referred to control animals
Experimental: Xenograft LLC tumors were grown in C57BL mice that were subsequently treated with […] of either Pt(IV) complex. Pt(IV) prodrugs were administered by oral gavage by taking advantage of their excellent stability, enabling in vivo oral formulation making platinum therapy safer lessening side effects and partially overcoming resistance to platinum(II) drugs, [35]. The schedule of Pt(IV) prodrug administration in vivo was initially determined by assessing the total dose that could be injected without undue toxicity in nontumor-bearing C57BL mice. From day 7 after tumor inoculation, when tumors became visible, tumor-bearing mice received daily doses of the Pt(IV) derivatives (20 mg kg^−1, by oral gavage).
The LLC cell line was purchased from ECACC, United Kingdom. The LLC cell line was maintained in DMEM (Euroclone) supplemented with 10% heat-inactivated fetal bovine serum (FBS; Euroclone), 10 mM L-glutamine, 100 U mL^−1 penicillin, and 100 μg mL^−1 streptomycin in a 5% CO2 air incubator at 37 °C. The LLC was implanted intramuscularly (im) as a 2 × 10^6 cell inoculum into the right hind leg of 8-week old male and female C57BL mice (24 ± 3 g body weight). […] At day 15, animals were sacrificed, the legs were amputated at the proximal end of the femur, and the inhibition of tumor growth was determined according to the difference in weight of the tumor-bearing leg, and the healthy leg of the animals expressed as a percentage referred to the control animals. Body weight was measured every two days and was taken as a parameter for systemic toxicity. All the values are the means ± SD of not less than three measurements.

[6] = tested on: HSF human primary skin fibroblasts; experiment: MTT cytotoxicity, 72 h; type: cell-based; conditions: platinum complexes
Experimental: as §1, §2

[7] = tested on: LNCaP human prostate adenocarcinoma cells; experiment: MTT cytotoxicity, 72 h; type: cell-based; conditions: platinum complexes
Experimental: as §1, §2

[8] = tested on: MRC-5 (PD30) human fetal lung fibroblasts; experiment: MTT cytotoxicity, 72 h; type: cell-based; conditions: platinum complexes
Experimental: as §1, §2

| SMILES | IC50 (PNT1a) [µM] | IC50 [1] [µM] | IC50 [2] [µM] | IC50 [3] [µM] | RF, resistance factor [4] | IC50 [4] [µM] | Average tumor weight (mean ± SD) [5] [g] | Inhibition of tumor growth [5] [%] | IC50 [6] [µM] | Increase of cytotoxicity vs. cisplatin ([2]; HCT-116, Fig. 2B) [x] | Increase of cytotoxicity vs. Pt(IV)diAc ([2]; HCT-116, Fig. 2D) [x] | IC50 [7] [µM] | IC50 [8] [µM] |
| --- | --- | --- | --- | --- | --- | --- | --- | --- | --- | --- | --- | --- | --- |
| CC(=O)[O][Pt]([NH2])([NH2])([Cl])([Cl])[O]C(C)=O [Pt(IV)diAc, cis, cis, trans-[Pt(IV)(NH3)2Cl2(Ac)2]] | 2.48 ± 0.1 | 14.5 ± 0.7 | 35.3 ± 1.4 | 51 ± 4 | 4.2 | 22 ± 3.1 |  |  |  |  |  |  |  |
| CCCCCCCC(=O)[O][Pt]([NH2])([NH2])([Cl])([Cl])[O]C(=O)CCCCCCC [Pt(IV)diOA, cis, cis, trans-[Pt(IV)(NH3)2Cl2(OA)2]] | 0.022 ± 0.001 | 0.14 ± 0.02 | 0.017 ± 0.003 | 0.038 ± 0.006 | 0.7 | 0.029 ± 0.002 | 0.025 ± 0.03 | 95 | 0.077 ± 0.001 | 347 | 2076 | 0.052 ± 0.005 | 0.052 ± 0.003 |
| CCCC(CCC)C(=O)[O][Pt]([NH2])([NH2])([Cl])([Cl])[O]C(=O)C(CCC)CCC [Pt(IV)diVPA, cis, cis, trans-[Pt(IV)(NH3)2Cl2(VPA)2]] |  |  |  |  |  |  | 0.174 ± 0.08 | 68 |  |  |  |  |  |
| N.N.[Cl][Pt][Cl] [cisplatin, reference compound] | 2.5 ± 0.32 | 19.9 ± 1 | 5.9 ± 0.9 | 17.4 ± 1.9 | 4.9 | 13.8 ± 0.1 |  |  | 69 ± 0.87 |  |  | 8.54 ± 1.78 | 10.6 ± 0.38 |
